Values quoted from earlier work as cited in article PMC10772668 (Clinical and Translational Science, 2023).

Conditions: cited from earlier work

For CN1C(=O)[C@@H](NC(=O)c2nnc(Cc3ccccc3)[nH]2)COc2ccccc21 [GSK2982772], the Safety and tolerability (clinical development) is listed as “safe and well‐tolerated” and the “Tolerability and ALT abnormalities” value (healthy participants) is listed as “well‐tolerated with no reports of ALT abnormalities”.
